{"source": "paper PMC6868039", "about": "“Maltose Processing and Not β-Amylase Activity Curtails Hydrolytic Starch Degradation in the CAM Orchid Phalaenopsis” (Frontiers in Plant Science, 2019)", "molecular_target": "T1, PEPC (phosphoenolpyruvate carboxylase)", "T1 construct": "native enzyme in desalted (Sephadex G-25) crude leaf extract, not purified; phosphorylation state varies over the day", "test": "NADH oxidation at […] nm, coupled to endogenous MDH in desalted leaf extract", "type": "biochemical, Phalaenopsis hybrid cultivar", "settings": "daytime leaves (mean of fluctuating values); 2.5 mM PEP, 10 mM NaHCO3, 5 mM MgCl2, pH 7.5, 25 °C; crude desalted extract"}
{"smiles": "O=C(O)C[C@H](O)C(=O)O", "note": "[malic acid]", "values": [{"measurement": "Ki", "value": "6 ± 3", "unit": "mM"}]}
